Test results as given in paper PMC2847917 (The Journal of General Physiology, 2010).

Columns and labels:
P2X4 receptor [1] = molecular target: T1, P2X4 receptor (Mus musculus, UniProt Q9JJX6); experiment: cell-based
T1 sequence (Q9JJX6 1-388): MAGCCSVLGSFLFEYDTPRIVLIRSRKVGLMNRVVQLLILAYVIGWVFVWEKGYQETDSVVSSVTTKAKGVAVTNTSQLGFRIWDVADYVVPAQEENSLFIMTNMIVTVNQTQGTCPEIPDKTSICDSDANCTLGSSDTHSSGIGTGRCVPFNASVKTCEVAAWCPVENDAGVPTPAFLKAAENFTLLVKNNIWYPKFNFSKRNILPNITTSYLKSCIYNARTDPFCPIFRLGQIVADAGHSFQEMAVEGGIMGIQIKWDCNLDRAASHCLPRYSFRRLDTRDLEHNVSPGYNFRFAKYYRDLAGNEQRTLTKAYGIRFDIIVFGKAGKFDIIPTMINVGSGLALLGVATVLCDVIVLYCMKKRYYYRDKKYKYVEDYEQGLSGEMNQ

P2X4 receptor [2] = molecular target: T1, P2X4 receptor; experiment: whole-cell voltage clamp, agonist-evoked inward current; format: cell-based

Question: Which EC50 (P2X4 receptor [1]) does the source give for `Nc1ncnc2c1ncn2[C@@H]1O[C@H](COP(=O)(O)OP(=O)(O)OP(=O)(O)O)[C@@H](O)[C@H]1O` [ATP] here?
Answer: Its EC50 is 33 µM.

Question: Which “whole-cell voltage clamp, agonist-evoked inward current (partial agonist)” value (P2X4 receptor [2]) does the source give for `Nc1ncnc2c1ncn2[C@@H]1O[C@H](COP(=O)(O)CP(=O)(O)OP(=O)(O)O)[C@@H](O)[C@H]1O` [α,β-Methylene ATP] here?
Answer: Its value is “α,β-Methylene ATP was a partial agonist”.
